In US20190030018A1 (Celgene Corporation, priority 2017, published 2019):

Key:
Assay in all cases: In vitro combination studies, CellTitre-Glo cell viability
OCT-AML-3 = settings: OCI-AML-3; in combination with Compound 1
F-36-P = settings: F-36-P; in combination with Compound 1
MOLM-13 = settings: MOLM-13; in combination with Compound 1
OCI-AML-2 = settings: OCI-AML-2; in combination with Compound 1
ML-2 = settings: ML-2; in combination with Compound 1
NOMO-1 = settings: NOMO-1; in combination with Compound 1
HNT-34 = settings: HNT-34; in combination with Compound 1
KG-1 = settings: KG-1; in combination with Compound 1
MV-4-11 = settings: MV-4-11; in combination with Compound 1
HL-60 = settings: HL-60; in combination with Compound 1

Structure (SMILES) | Synergy analysis for combinations with Compound 1 (OCT-AML-3) | Synergy analysis for combinations with Compound 1 (F-36-P) | Synergy analysis for combinations with Compound 1 (MOLM-13) | Synergy analysis for combinations with Compound 1 (OCI-AML-2) | Synergy analysis for combinations with Compound 1 (ML-2) | Synergy analysis for combinations with Compound 1 (NOMO-1) | Synergy analysis for combinations with Compound 1 (HNT-34) | Synergy analysis for combinations with Compound 1 (KG-1) | Synergy analysis for combinations with Compound 1 (MV-4-11) | Synergy analysis for combinations with Compound 1 (HL-60)
COc1ccc(-c2ccc3c(N4CCOC[C@@H]4C)nc(N4CCOC[C@@H]4C)nc3n2)cc1CO [AZD8055] | Yes | Yes | Yes | Yes | No | Yes | No | No | No | No
CO[C@H]1/C=C\C=C(/C)C(=O)NC2=CC(=O)C(NCCN(C)C)=C(C[C@@H](C)C[C@H](OC)[C@H](O)[C@@H](C)/C=C(\C)[C@@H]1OC(N)=O)C2=O [Alvespimycin] | No | No | No | Yes | No | No | No | No | Yes | No
CCN1C(=O)CNc2ncc(-c3ccc(-c4nc[nH]n4)nc3C)nc21 [CC-115, 1-ethyl-7-(2-methyl-6-(1H-1,2,4-triazol-3-yl)pyridin-3-yl)-3,4-dihydropyrazino[2,3-b]pyrazin-2(1H)-one, reference compound] | Yes | Yes | Yes | Yes | Yes | Yes | Yes | No | Yes | No
CO[C@H]1CC[C@H](N2C(=O)CNc3ncc(-c4ccc(C(C)(C)O)nc4)nc32)CC1 [CC-223, 7-(6-(2-hydroxypropan-2-yl)pyridin-3-yl)-1-((trans)-4-methoxycyclohexyl)-3,4-dihydropyrazino[2,3-b]pyrazin-2(1H)-one, reference compound] | Yes | Yes | Yes | Yes | Yes | Yes | No | No | Yes | No
CC(C)C[C@H](NC(=O)[C@@H](NC(=O)c1cccc(-c2ccccc2)n1)[C@@H](C)O)B(O)O [CEP-18770] | No | No | No | No | No | No | No | No | No | No
CC(C)C[C@H](NC(=O)[C@H](CCc1ccccc1)NC(=O)CN1CCOCC1)C(=O)N[C@@H](Cc1ccccc1)C(=O)N[C@@H](CC(C)C)C(=O)[C@@]1(C)CO1 [Carfilzomib] | No | No | No | No | No | No | No | No | No | No
Cn1cc(-c2cc(S(C)(=O)=O)ccc2OCC2CC2)c2ccccc2c1=O [Compound A, 4-[2-(cyclopropylmethoxy)-5-(methanesulfonyl)phenyl]-2-methylisoquinolin-1(2H)-one, reference compound] | Yes | Yes | Yes | Yes | Yes | Yes | No | No | No | No
COc1ccc(-c2c(-c3ccc(C#N)c(F)c3)nc(N3CCC(N)CC3)n(C)c2=O)cc1F [Compound B, 4-[2-(4-amino-piperidin-1-yl)-5-(3-fluoro-4-methoxy-phenyl)-1-methyl-6-oxo-1,6-dihydropyrimidin-4-yl]-2-fluoro-benzonitrile, reference compound] | No | Yes | Yes | No | No | No | No | No | No | No
C[C@@H]1C[C@H]2[C@@H]3CCC4=CC(=O)C=C[C@]4(C)[C@@]3(F)[C@@H](O)C[C@]2(C)[C@@]1(O)C(=O)CO [Dexamethason] | No | No | No | No | No | Yes | No | No | No | No
CC(C)C[C@H](NC(=O)CNC(=O)c1cc(Cl)ccc1Cl)B(O)O [Ixazomib] | No | No | No | No | No | No | No | No | No | No
CC(C)n1nc(-c2ccc3oc(N)nc3c2)c2c(N)ncnc21 [MLN-0128] | No | Yes | Yes | Yes | No | No | No | No | No | No
